Columns and labels:
[1] = target: T1, human LPA1 receptor (Homo sapiens, UniProt Q92633); experiment: Beta-arrestin recruitment assay to determine IC50 values for human LPAR1; format: cell-based; conditions: Tango EDG2-bla U2OS cells, antagonist assay, LPA 18:1 500 nM final
T1 construct: TEV protease site; Gal4-VP16 transcription factor; host or cells: Tango EDG2-bla U2OS cells
Outline: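 Tango EDG2-bla U2OS cells were preincubated 30 min at 37 °C with compound. They were then stimulated with 500 nM (final) LPA 18:1 for 16 h. β-Lactamase reporter read by LiveBLAzer FRET substrate (2 h) as the 460/530 nm ratio; IC50 from 4-parameter logistic fit.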

[2] = system: LPA-induced skin vascular leakage in Balb/c mice; experiment: mouse LPA-induced skin vascular leakage model; format: in vivo; conditions: oral administration of 30 mg/kg to mice; extravasated Evans blue per skin disc
Procedure: Assessment of In Vivo Potency
The in vivo potency of the compounds of Formula (I) can be determined using a mouse LPA-induced skin vascular leakage model. Female Balb/c mice are treated with either vehicle or test compound (e.g. at 30 mg/kg or 100 mg/kg p.o.) for at least 1 h prior to administration of the albumin marker Evans blue (50 mg/kg, i.v., 0.9% NaCl) and subsequent challenge with LPA (5 μg, i.d.). After 30 minutes, mice are sacrificed by CO2 inhalation. Discs of skin from the injection sites are removed, digested in formamide (500 μl, 37° C., 24 hrs) and the content of Evans blue quantified by colorimetric assay. Results are expressed as extravasated Evans blue per skin disc (μg/disc).
As an example, selected compound of the present invention, Ex 21-2, is able to effectively reduce LPA-induced vascular leakage after oral administration of 30 mg/kg to mice as compared to a group of animals treated with vehicle only. Reduction of vascular leakage compared to vehicle group was >60%.

T1 sequence (Q92633 whole entry, the tested form may be a part): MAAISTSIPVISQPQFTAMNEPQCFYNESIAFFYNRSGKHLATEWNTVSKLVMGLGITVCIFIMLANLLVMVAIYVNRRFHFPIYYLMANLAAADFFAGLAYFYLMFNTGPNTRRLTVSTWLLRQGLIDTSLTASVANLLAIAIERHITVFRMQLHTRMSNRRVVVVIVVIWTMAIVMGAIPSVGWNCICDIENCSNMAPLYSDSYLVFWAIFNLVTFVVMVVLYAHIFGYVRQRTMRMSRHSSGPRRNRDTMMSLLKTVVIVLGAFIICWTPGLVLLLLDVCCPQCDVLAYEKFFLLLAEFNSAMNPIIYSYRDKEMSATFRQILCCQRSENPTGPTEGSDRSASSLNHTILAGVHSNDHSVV

| IC50 [1] [nM] | SMILES | Reduction of vascular leakage compared to vehicle group [2] [%] |
| --- | --- | --- |
| 13 | COc1cc(Cl)ncc1NC(=O)C1(c2ccccc2C(C)C)CN(c2nc(C)ncc2F)C1 [Example 24-16, N-(6-chloro-4-methoxypyridin-3-yl)-1-(5-fluoro-2-methylpyrimidin-4-yl)-3-(2-isopropylphenyl)azetidine-3-carboxamide] |  |
| 73 | COCCNS(=O)(=O)N1CC(C(=O)Nc2cnc(Cl)cc2OC)(c2ccccc2C(C)C)C1 [Example 21-20, N-(6-chloro-4-methoxypyridin-3-yl)-3-(2-isopropylphenyl)-1-(N-(2-methoxyethyl)sulfamoyl)azetidine-3-carboxamide] |  |
| 1 | COc1cc(Cl)ncc1NC(=O)C1(c2ccccc2C(C)C)CN(c2cc(F)ccn2)C1 [Example 24-7, N-(6-chloro-4-methoxypyridin-3-yl)-1-(4-fluoropyridin-2-yl)-3-(2-isopropylphenyl)azetidine-3-carboxamide] |  |
| 204 | COc1cc(Cl)ncc1NC(=O)C1(c2ccccc2C(C)C)CN(C(=O)NCCC(=O)O)C1 [Example 22-14, 3-(3-((6-chloro-4-methoxypyridin-3-yl)carbamoyl)-3-(2-isopropylphenyl)azetidine-1-carboxamido)propanoic acid] |  |
| 21 | COc1cc(Cl)ncc1NC(=O)C1(c2ccccc2C(C)C)CN(S(=O)(=O)CCO)C1 [Example 20-3, N-(6-chloro-4-methoxypyridin-3-yl)-1-((2-hydroxyethyl)sulfonyl)-3-(2-isopropylphenyl)azetidine-3-carboxamide] |  |
| 6 | COC(=O)N1CC(C(=O)Nc2cnc(Cl)cc2OC)(c2ccccc2C(C)C)C1 [Example 23-1, Methyl 3-((6-chloro-4-methoxypyridin-3-yl)carbamoyl)-3-(2-isopropylphenyl)azetidine-1-carboxylate] |  |
| 6 | CCNC(=O)N1CC(C(=O)Nc2cnc(Cl)cc2OC)(c2ccccc2C(C)C)C1 [Example 22-3, N3-(6-chloro-4-methoxypyridin-3-yl)-N1-ethyl-3-(2-isopropylphenyl)azetidine-1,3-dicarboxamide] |  |
| 37 | COc1cc(C)ncc1NC(=O)C1(c2ccccc2C(C)C)CN(S(N)(=O)=O)C1 [Example 21-10, 3-(2-isopropylphenyl)-N-(4-methoxy-6-methylpyridin-3-yl)-1-sulfamoylazetidine-3-carboxamide] |  |
| 12 | COc1cc(Cl)ncc1NC(=O)C1(c2ncccc2C(C)C)CN(S(N)(=O)=O)C1 [Example 21-16, N-(6-chloro-4-methoxypyridin-3-yl)-3-(3-isopropylpyridin-2-yl)-1-sulfamoylazetidine-3-carboxamide] |  |
| 19 | CNS(=O)(=O)N1CC(C(=O)Nc2cnc(Cl)cc2OC)(c2ccccc2C(C)C)C1 [Example 21-12, N-(6-chloro-4-methoxypyridin-3-yl)-3-(2-isopropylphenyl)-1-(N-methylsulfamoyl)azetidine-3-carboxamide] |  |
| 11 | COc1cc(Cl)ncc1NC(=O)C1(c2ccccc2C(C)C)CN(S(C)(=O)=O)C1 [Example 20-1, N-(6-chloro-4-methoxypyridin-3-yl)-3-(2-isopropylphenyl)-1-(methylsulfonyl)azetidine-3-carboxamide] |  |
| 1560 | COc1ccncc1NC(=O)C1(c2ccccc2C(C)C)CN(S(N)(=O)=O)C1 [Example 21-18, 3-(2-isopropylphenyl)-N-(4-methoxypyridin-3-yl)-1-sulfamoylazetidine-3-carboxamide] |  |
| 3 | COc1cc(Cl)ncc1NC(=O)C1(c2ccccc2C(C)C)CN(S(N)(=O)=O)C1 [Example 21-2, N-(6-chloro-4-methoxypyridin-3-yl)-3-(2-isopropylphenyl)-1-sulfamoylazetidine-3-carboxamide] | > 60 |
| 9 | COC(=O)c1cnc(N2CC(C(=O)Nc3cnc(Cl)cc3OC)(c3ccccc3C(C)C)C2)cn1 [Example 24-19, methyl 5-(3-((6-chloro-4-methoxypyridin-3-yl)carbamoyl)-3-(2-isopropylphenyl)azetidin-1-yl)pyrazine-2-carboxylate] |  |
| 16 | COc1cc(Cl)ncc1NC(=O)C1(c2ccccc2C(C)C)CCN(S(N)(=O)=O)CC1 [Example 21-8, N-(6-chloro-4-methoxypyridin-3-yl)-4-(2-isopropylphenyl)-1-sulfamoylpiperidine-4-carboxamide] |  |
| 8 | COc1cc(Cl)ncc1NC(=O)C1(c2ccccc2C(C)C)CN(c2cc(C)ncn2)C1 [Example 24-14, N-(6-chloro-4-methoxypyridin-3-yl)-3-(2-isopropylphenyl)-1-(6-methylpyrimidin-4-yl)azetidine-3-carboxamide] |  |

The remaining lines, values behind:

| SMILES | IC50 [1] [nM] | Reduction of vascular leakage compared to vehicle group [2] [%] |
| --- | --- | --- |
| COc1cc(Cl)ncc1NC(=O)C1(c2ccccc2C(C)C)CN(CCC(C)(C)C(=O)O)C1 [Example 18-17, 4-(3-((6-chloro-4-methoxypyridin-3-yl)carbamoyl)-3-(2-isopropylphenyl)azetidin-1-yl)-2,2-dimethylbutanoic acid] | 27 |  |
| COc1ccncc1NC(=O)C1(c2ccccc2C(C)C)CNC1 [Example 2, 3-(2-isopropylphenyl)-N-(4-methoxypyridin-3-yl)azetidine-3-carboxamide] | 74 |  |
| COC[C@H](C)Oc1cc(Cl)ncc1NC(=O)C1(c2ccccc2C(C)C)CNC1 [Example 9, (S)-N-(6-chloro-4-((1-methoxypropan-2-yl)oxy)pyridin-3-yl)-3-(2-isopropylphenyl)azetidine-3-carboxamide] | 4 |  |
| CCOc1cc(Cl)ncc1NC(=O)C1(c2ccccc2C(C)C)CN(CCCC(C)(C)C(=O)O)C1 [Example 18-27, 5-(3-((6-chloro-4-ethoxypyridin-3-yl)carbamoyl)-3-(2-isopropylphenyl)azetidin-1-yl)-2,2-dimethylpentanoic acid] | 21 |  |
| COc1cc(Cl)ncc1NC(=O)C1(c2cc(F)ccc2C(C)C)CNC1 [Example 14, N-(6-chloro-4-methoxypyridin-3-yl)-3-(5-fluoro-2-isopropylphenyl)azetidine-3-carboxamide] | 12 |  |
| COc1cc(Cl)ncc1NC(=O)C1(c2ncccc2C(C)C)CNC1 [Example 15, N-(6-chloro-4-methoxypyridin-3-yl)-3-(3-isopropylpyridin-2-yl)azetidine-3-carboxamide] | 196 |  |
| COc1cc(Cl)ncc1NC(=O)C1(c2ccccc2C(C)C)CN(C(=O)CNS(N)(=O)=O)C1 [Example 19-14, N-(6-chloro-4-methoxypyridin-3-yl)-3-(2-isopropylphenyl)-1-(sulfamoylglycyl)azetidine-3-carboxamide] | 67 |  |
| CCOc1cc(Cl)ncc1NC(=O)C1(c2ccccc2C(C)C)CNC1 [Example 5, N-(6-chloro-4-ethoxypyridin-3-yl)-3-(2-isopropylphenyl)azetidine-3-carboxamide] | 3 |  |
| COc1cc(Cl)ncc1NC(=O)C1(c2ccccc2C(C)C)CN(Cc2cc[nH]n2)C1 [Example 18-13, 1-((1H-pyrazol-3-yl)methyl)-N-(6-chloro-4-methoxypyridin-3-yl)-3-(2-isopropylphenyl)azetidine-3-carboxamide] | 129 |  |
| CCOC(=O)C(C)(C)CCCN1CC(C(=O)Nc2cnc(Cl)cc2OCC)(c2ccccc2C(C)C)C1 [Example 18-26, ethyl 5-(3-((6-chloro-4-ethoxypyridin-3-yl)carbamoyl)-3-(2-isopropylphenyl)azetidin-1-yl)-2,2-dimethylpentanoate] | 72 |  |
| COc1cc(Cl)ncc1NC(=O)C1(c2ccccc2C(C)C)CCNCC1 [Example 10, N-(6-chloro-4-methoxypyridin-3-yl)-4-(2-isopropylphenyl)piperidine-4-carboxamide] | 12 |  |
| COc1cc(Cl)ncc1NC(=O)C1(c2ccccc2C(C)C)CN(C(=O)CS(C)(=O)=O)C1 [Example 19-16, N-(6-chloro-4-methoxypyridin-3-yl)-3-(2-isopropylphenyl)-1-(2-(methylsulfonyl)acetyl)azetidine-3-carboxamide] | 54 |  |
